Assay results published in patent US8623416B2 (priority 2009, dated 2014).
“Also recorded” adds a separate entry of the source. Where two headings read alike, the source gives them in different places.

How the values were obtained:
[1] = assay type: physicochemical; conditions: 0.1 ml squalamine lactate 10 mg/ml in water + 1 volume 0.1M solution of the anion, turbid = insoluble salt form
Yellow Fever [2] = tested on: Yellow Fever; design: species or system Syrian hamsters; conditions: hamster, in vivo
[3] = for Toxicity: hamster, in vivo, sc
[4] = 10 mg of squalamine as a phosphate suspension
[5] = in vivo; cited from earlier work
[6] = tested on: Eastern Equine Encephalitis Virus; design: species or system hamsters (Syrian golden); conditions: hamster, in vivo
[7] = tested on: human Hepatitis Delta virus; assay: Hepatitis Delta virus replication in primary human hepatocytes, PCR (Example 20)
[8] = tested on: murine cytomegalovirus (MCMV); assay type: in vivo, Balb/c mice; conditions: for viral titers in lungs and salivary glands vs other groups / viral titers in spleen and liver vs control: day 7
[9] = tested on: Eastern Equine Encephalitis Virus; design: species or system mice; conditions: mouse, in vivo
[10] = in vivo; cited from earlier work; remark: listed apart in the source
Yellow Fever [11] = tested on: Yellow Fever; design: species or system Syrian hamsters; conditions: hamster, in vivo; remark: listed apart in the source
human Hepatitis B virus = assay: Hepatitis B virus replication in primary human hepatocytes, PCR (Example 19); assay type: cell-based
Description: The purpose of this experiment was to determine the antiviral activity of squalamine against human Hepatitis B virus. The experiment was conducted in vitro, using primary human hepatocytes.
Experimental design: Primary human hepatocytes were established in a 96 well microtiter plate. Squalamine was then added at concentrations of 2, 6 or 20 μg/ml followed by an inoculum of Hep B virus, and then in culture for 16 hours, after which fresh medium was introduced, and the cells maintained in culture for 14 days. In a second experiment, squalamine at 6 or 20 μg/ml was added to the cells at 24 hours post inoculation for a 16 hour exposure, followed by removal of medium, replacement with fresh medium, and continued culture for 14 days. Viral growth was measured by PCR using viral specific primers and normalized to the total RNA extracted from each corresponding well.

[12] = tested on: human immunodeficiency virus (HIV)
[13] = 20 μg/ml, added during initial stages of infection
[14] = squalamine phosphate 10 mg/kg/day s.c.
[15] = mouse, in vivo, ip, 10 mg/kg/day

CC(=O)C(=O)[O-].[Na+] [Sodium pyruvate]
Turbidity [1]: No and no

O=P([O-])([O-])OP(=O)([O-])OP(=O)([O-])[O-].[Na+].[Na+].[Na+].[Na+].[Na+] [Sodium triphosphate]
Turbidity ([1]; triphosphate): Yes and yes

NC(=O)c1ncn([C@@H]2O[C@H](CO)[C@@H](O)[C@H]2O)n1 [ribavirin, reference compound]
survival vs placebo (Yellow Fever [2]): fared no better than the placebo-treated cohort

O=C[C@H](O)[C@@H](O)[C@H](O)[C@H](O)COP(=O)(O)O [Glucose 6-phosphate]
Turbidity [1]: No and no

squalamine phosphate
Toxicity ([3]; 15 mg/kg/day): none | Toxicity ([3]; 30 mg/kg/day): none | Toxicity ([3]; 60 mg/kg/day): none | lesions at the sites of administration ([3]; s.c. dosing at 10 mg/ml, recorded 7 days post injection): no lesions | water added until fully dissolved [4]: about 250 ml | survival (Yellow Fever [2]): 70% | persistence of local signs (lactate: signs and symptoms; phosphate: slight swelling) (0.1 ml of 10 mg/ml s.c.): about 1 week | local signs at injection site (human, in vivo, sc): free of visible signs of irritation, save for a slight swelling | pain on injection (human, in vivo, sc): no pain other than that produced by the needle prick

3 beta-N-1-(N-[3-(4-aminobutyl)]-1,3-diaminopropane)-7 alpha,24 zeta-dihydroxy-5 alpha-cholestane 24-sulfate [squalamine]
tolerability [5]: well tolerated | Toxicity ([3]; 15 mg/kg/day): Mild/moderate by day 1 | Toxicity ([3]; 30 mg/kg/day): moderate | Toxicity ([3]; 60 mg/kg/day): Severe, open wounds | effect on survival [6]: extended survival; also recorded: increase survival | effect on viremia [6]: significantly reduce viremia | hamsters still alive at the end of treatment [6]: 6/10 | plasma concentrations of virus lower than vehicle [6]: about 100 fold | inhibition of viral production [7, 13]: 90% | cytotoxicity in vitro ([7]; 60 μg/ml, primary human hepatocytes): cytotoxic | viral titers in lung compared with control ([8]; 10 mg/kg/day i.p.): trend toward reduction | viral titers in lungs and salivary glands vs other groups ([8]; 10 mg/kg/day i.p.): no significant differences | viral titers in spleen and liver vs control ([8]; 10 mg/kg/day i.p.): significantly lower than in the control cohort | viral titers in lungs and salivary glands vs other groups [8, 14]: no significant differences | viral titers in spleen and liver vs control [8, 14]: significantly lower than in the control cohort | virus in the liver and spleen ([8]; mouse, in vivo): significantly reduced; also recorded: undetectable levels | effect on viral growth in the salivary gland [8, 15]: little effect | reduction in viral growth in liver, spleen, and lung [8, 15]: greater than 10 fold | virus in the liver and spleen [8, 15]: undetectable levels | survival (Yellow Fever [2]): 70% | cell viability (Dengue virus): not diminished | inhibition of viral infection (Dengue virus): 100% | efficacy in mice [9]: ineffective | tolerability [10]: well tolerated | animals cured (Yellow Fever [11]): 40% | outcome of treatment of established infection (Yellow Fever [11]): cure a lethal infection | survival through day 21 (Yellow Fever [11]): 60% | inhibition of viral production (human Hepatitis B virus; 2 μg/ml, added only at the outset of infection): 14% | inhibition of viral production (human Hepatitis B virus; 6 μg/ml, added at 24 hours): 30% | inhibition of viral production (human Hepatitis B virus; 6 μg/ml, added at the onset of infection): 54% | inhibition of viral production (human Hepatitis B virus; 20 μg/ml, added at 24 hours): 64% | inhibition of viral production (human Hepatitis B virus; [13]): 83% | Toxicity [12]: no evidence of toxicity | inhibition of HIV infection [12]: about 50%; also recorded: about 20%
